Measurements reported in US20080051418A1, “Arylalkanoic Acid Derivative” (priority 2004, published 2008).

Tests used:
PPARγ-RXRα heterodimer = biological target: T1, PPARγ-RXRα heterodimer (Homo sapiens, UniProt P37231); assay: PPARγ-RXRα heterodimer ligand activity (luciferase reporter); assay type: cell-based; conditions: PPARγ:RXRα:4ERPP/CHO-K1 cells, 18-24 hr, concentration showing 50% of the maximum induction rate
T1 construct: expressed in transfected cells; host or cells: CHO-K1
T1 sequence (P37231 1-505): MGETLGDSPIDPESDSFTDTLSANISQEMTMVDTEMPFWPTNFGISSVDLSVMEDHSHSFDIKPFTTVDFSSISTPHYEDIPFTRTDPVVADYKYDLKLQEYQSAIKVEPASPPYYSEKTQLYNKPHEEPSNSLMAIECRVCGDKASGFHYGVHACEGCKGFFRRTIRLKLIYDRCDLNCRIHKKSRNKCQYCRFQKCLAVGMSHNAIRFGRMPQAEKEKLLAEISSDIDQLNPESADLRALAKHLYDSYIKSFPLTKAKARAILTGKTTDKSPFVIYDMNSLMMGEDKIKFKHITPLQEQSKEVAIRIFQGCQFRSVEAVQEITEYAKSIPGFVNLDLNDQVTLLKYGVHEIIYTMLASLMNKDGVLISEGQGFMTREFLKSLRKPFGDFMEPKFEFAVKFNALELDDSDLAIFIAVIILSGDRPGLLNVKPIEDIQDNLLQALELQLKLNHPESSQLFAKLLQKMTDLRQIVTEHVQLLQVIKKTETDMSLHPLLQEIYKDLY
T1 sequence (P19793 1-462 partner): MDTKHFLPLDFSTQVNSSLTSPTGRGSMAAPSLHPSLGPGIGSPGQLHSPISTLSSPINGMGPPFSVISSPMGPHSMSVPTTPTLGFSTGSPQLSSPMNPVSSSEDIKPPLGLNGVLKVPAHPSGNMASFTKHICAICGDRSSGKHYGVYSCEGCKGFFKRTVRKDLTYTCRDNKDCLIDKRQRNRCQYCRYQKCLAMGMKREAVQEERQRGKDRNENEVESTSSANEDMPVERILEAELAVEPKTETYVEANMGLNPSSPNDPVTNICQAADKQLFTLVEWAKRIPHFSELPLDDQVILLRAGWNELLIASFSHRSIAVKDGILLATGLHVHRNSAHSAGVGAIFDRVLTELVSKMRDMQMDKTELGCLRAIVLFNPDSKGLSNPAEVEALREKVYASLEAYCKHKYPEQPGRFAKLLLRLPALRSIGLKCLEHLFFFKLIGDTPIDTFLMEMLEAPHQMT
Procedure: The PPARγ:RXRα:4ERPP/CHO-K1 cells described in WO03/099793 were cultured in a Ham F12 medium [manufactured by Life Technologies, Inc., US] containing 10% calf fetal serum [manufactured by Life Technologies, Inc., US], sown in a 96-well white plate [manufactured by Corning Coster Corporation, US] at 2×10^4 cells/well, and incubated overnight in a carbon dioxide gas incubator at 37° C.
Then, the medium was removed from the 96 well white plate, 80 μl of Ham F12 medium containing 0.1% fatty acid-free bovine serum albumin (BSA) and a test compound (20 μl) were added, and the cells were incubated for 18-24 hr in a carbon dioxide gas incubator at 37° C. The medium was removed, 40 μl of PicaGene 7.5 (manufactured by Wako Pure Chemical Industries, Ltd.) diluted 2-fold with HBSS (HANKS' BALANCED SALT SOLUTION) [manufactured by BIO WHITTAKER, US] was added. After stirring, the luciferase activity was determined using the 1420 ARVO Multilabel Counter [manufactured by PerkinElmer, US].
(§1) The induction rate was calculated from the luciferase activity of each test compound based on the luciferase activity of the test compound non-administration group as 1. The test compound concentration and the induction rate were analyzed by PRISM [manufactured by GraphPad Software, Inc., US] to calculate EC50 value (compound concentration showing 50% of the maximum value of induction rate) of the test compound.

PPARδ-RXRα heterodimer = biological target: T2, PPARδ-RXRα heterodimer (Homo sapiens, UniProt Q03181); assay: PPARδ-RXRα heterodimer ligand activity (luciferase reporter); assay type: cell-based; conditions: transformant of Reference Example 9a of WO03/099793, 36-48 hr, concentration showing 50% of the maximum induction rate
T2 construct: expressed in transfected cells
T2 sequence (Q03181 1-441): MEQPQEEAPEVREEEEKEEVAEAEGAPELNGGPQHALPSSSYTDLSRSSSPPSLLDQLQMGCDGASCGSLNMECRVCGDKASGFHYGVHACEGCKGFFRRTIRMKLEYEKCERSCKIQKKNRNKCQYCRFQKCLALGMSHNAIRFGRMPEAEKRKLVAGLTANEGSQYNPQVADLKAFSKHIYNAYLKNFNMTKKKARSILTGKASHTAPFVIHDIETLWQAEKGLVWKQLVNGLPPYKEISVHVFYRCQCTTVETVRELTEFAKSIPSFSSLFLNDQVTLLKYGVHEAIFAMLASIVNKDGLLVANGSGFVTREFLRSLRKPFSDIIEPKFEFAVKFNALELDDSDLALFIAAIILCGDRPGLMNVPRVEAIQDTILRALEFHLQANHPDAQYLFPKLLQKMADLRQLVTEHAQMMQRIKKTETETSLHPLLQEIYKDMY
T2 sequence (P19793 1-462 partner): T1 sequence (P19793 1-462 partner)
Procedure: The transformant described in Reference Example 9a of WO03/099793 was suspended in a DMEM medium [manufactured by Life technologies, Inc., US] containing 0.1% fatty acid-free bovine serum albumin (BSA) (manufactured by Wako Pure Chemical Industries, Ltd.), and inoculated to each well of a 96 well white plate [manufactured by Corning Coster Corporation, US] by 80 μl to 1×10^4 cells/well. Then, the test compound (20 μl) was added, and cultured under the conditions of 37° C., 5% CO2 for 36-48 hr. The medium was removed from the 96 well white plate, 40 μl of PicaGene LT 7.5 (manufactured by Wako Pure Chemical Industries, Ltd.) diluted 2-fold with HBSS (HANKS' BALANCED SALT SOLUTION) [manufactured by BIO WHITTAKER, US] was added and, after stirring, the luciferase activity was determined using the 1420 ARVO Multilabel Counter [manufactured by PerkinElmer, US].
as §1

SMILES	EC50 (PPARγ-RXRα heterodimer)	EC50 (PPARδ-RXRα heterodimer)	melting point
CC(C)Cn1nc(OCCCc2ccc(OC(C)C)cc2Oc2ncc(C(F)(F)F)cc2Cl)cc1CCC(=O)O [Example 143, 3-{3-[3-(2-{[3-chloro-5-(trifluoromethyl)pyridin-2-yl]oxy}-4-isopropoxyphenyl)propoxy]-1-isobutyl-1H-pyrazol-5-yl}propanoic acid]	1.4 nM	11 nM	71 to 73 °C
CC(C)Oc1ccc(CCCOc2nn(Cc3ccccc3)cc2CC(=O)O)c(Oc2ncc(C(F)(F)F)cc2Cl)c1 [Example 118, {3-[3-(2-{[3-chloro-5-(trifluoromethyl)pyridin-2-yl]oxy}-4-isopropoxyphenyl)propoxy]-1-benzyl-1H-pyrazol-4-yl}acetic acid]	0.75 nM	9.2 nM	
COc1cccc(CC(=O)O)c1OCCCc1ccc(Oc2ccc(C(F)(F)F)cn2)cc1OC(C)C [Example 101, {2-[3-(2-isopropoxy-4-{[5-(trifluoromethyl)pyridin-2-yl]oxy}phenyl)propoxy]-3-methoxyphenyl}acetic acid]		44 nM	
COc1cccc(CC(=O)O)c1OCCCc1cc(OC(C)C)nn1Cc1ccc(Cl)cc1OC(C)C [Example 70, (2-{3-[1-(4-chloro-2-isopropoxybenzyl)-3-isopropoxy-1H-pyrazol-5-yl]propoxy}-3-methoxyphenyl)acetic acid]		60 nM	
CC(C)Oc1cc(CCCOc2cc(CCC(=O)O)n(-c3ccccc3)n2)cc(COc2ccc(Cl)cc2Cl)c1 [Example 196, 3-[3-(3-{3-[(2,4-dichlorophenoxy)methyl]-5-isopropoxyphenyl}propoxy)-1-phenyl-1H-pyrazol-5-yl]propanoic acid]	16 nM	11 nM	104 to 106 °C
COc1cccc(CC(=O)O)c1OCCCc1cc(OC(C)C)nn1Cc1ccc(C(F)(F)F)cc1Cl [Example 66, [2-(3-{1-[2-chloro-4-(trifluoromethyl)benzyl]-3-isopropoxy-1H-pyrazol-5-yl}propoxy)-3-methoxyphenyl]acetic acid]	1.2 nM	2.8 nM	98 to 99 °C
COc1cccc(CC(=O)O)c1OCCCc1ccc(OC(C)C)cc1Oc1ncc(C(F)(F)F)cc1Cl [Example 115, {2-[3-(2-{[3-chloro-5-(trifluoromethyl)pyridin-2-yl]oxy}-4-isopropoxyphenyl)propoxy]-3-methoxyphenyl}acetic acid]		2.5 nM	
CC(C)Oc1ccc(CCCOc2nn(C)cc2CC(=O)O)c(Oc2ncc(Cl)cc2Cl)c1 [Example 132, [3-(3-{2-[(3,5-dichloropyridin-2-yl)oxy]-4-isopropoxyphenyl}propoxy)-1-methyl-1H-pyrazol-4-yl]acetic acid]	11 nM	88 nM	
CCCOc1ccc(CCCOc2nn(C)cc2CC(=O)O)c(Oc2ncc(C(F)(F)F)cc2Cl)c1 [Example 113, {3-[3-(2-{[3-chloro-5-(trifluoromethyl)pyridin-2-yl]oxy}-4-propoxyphenyl)propoxy]-1-methyl-1H-pyrazol-4-yl}acetic acid]		44 nM	
CC(C)Oc1ccc(CCCOc2cc(CCC(=O)O)n(-c3ccccc3)n2)c(OCc2ccc(Cl)cc2Cl)c1 [Example 160, 3-[3-(3-{2-[(2,4-dichlorobenzyl)oxy]-4-isopropoxyphenyl}propoxy) -1-phenyl-1H-pyrazol-5-yl]propanoic acid]	5.3 nM	6 nM	139 to 141 °C
CC(C)Oc1ccc(CCCOc2cc(CCC(=O)O)n(C)n2)c(Oc2ncc(C(F)(F)F)cc2Cl)c1 [Example 139, 3-{3-[3-(2-{[3-chloro-5-(trifluoromethyl)pyridin-2-yl]oxy}-4-isopropoxyphenyl)propoxy]-1-methyl-1H-pyrazol-5-yl}propanoic acid]	9 nM	17 nM	88 to 89 °C
CCn1nc(OCCCCc2ccc(OC(C)C)cc2Oc2ncc(C(F)(F)F)cc2Cl)cc1CCC(=O)O [Example 158, 3-{3-[4-(2-{[3-chloro-5-(trifluoromethyl)pyridin-2-yl]oxy}-4-isopropoxyphenyl)butoxy]-1-ethyl-1H-pyrazol-5-yl}propanoic acid]	7.1 nM	17 nM	129 to 130 °C
CCCOc1cc(Oc2ccc(C(F)(F)F)cn2)ccc1CCCOc1c(CC(=O)O)cccc1OC [Example 102, {2-[3-(2-propoxy-4-{[5-(trifluoromethyl)pyridin-2-yl]oxy}phenyl)propoxy]-3-methoxyphenyl}acetic acid]		54 nM	
CC(C)Oc1ccc(CCCOc2cc(CCC(=O)O)n(-c3ccccc3)n2)c(Oc2ncc(Cl)cc2Cl)c1 [Example 138, 3-[3-(3-{2-[(3,5-dichloropyridin-2-yl)oxy]-4-isopropoxyphenyl}propoxy)-1-phenyl-1H-pyrazol-5-yl]propanoic acid]	1.2 nM	4 nM	
CCn1cc(CC(=O)O)c(OCCCc2ccc(OC(C)C)cc2Oc2ncc(Cl)cc2Cl)n1 [Example 120, [3-(3-{2-[(3,5-dichloropyridin-2-yl)oxy]-4-isopropoxyphenyl}propoxy)-1-ethyl-1H-pyrazol-4-yl]acetic acid]	3.3 nM	23 nM	
CC(C)Oc1ccc(CCCOc2nn(C)cc2CC(=O)O)c(Oc2ncc(C(F)(F)F)cc2Cl)c1 [Example 116, {3-[3-(2-{[3-chloro-5-(trifluoromethyl)pyridin-2-yl]oxy}-4-isopropoxyphenyl)propoxy]-1-methyl-1H-pyrazol-4-yl}acetic acid]	1.6 nM	9.3 nM	
CCCOc1ccc(CCCOc2nn(Cc3ccccc3)cc2CC(=O)O)c(Oc2ncc(C(F)(F)F)cc2Cl)c1 [Example 114, {3-[3-(2-{[3-chloro-5-(trifluoromethyl)pyridin-2-yl]oxy}-4-propoxyphenyl)propoxy]-1-benzyl-1H-pyrazol-4-yl}acetic acid]		25 nM	
COc1cccc(CC(=O)O)c1OCCCc1ccc(OC(C)C)cc1Oc1ncc(Cl)cc1Cl [Example 119, [2-(3-{2-[(3,5-dichloropyridin-2-yl)oxy]-4-isopropoxyphenyl}propoxy)-3-methoxyphenyl]acetic acid]		39 nM	92 to 93 °C
